Assay results published in ChEMBL document CHEMBL5352452, “Design, synthesis and pharmacological evaluation of β-carboline derivatives as potential antitumor agent via targeting autophagy” (Eur J Med Chem, 2023).
Activity calls are given as the source filed them. The rule behind the calls is not given here.

Legend:
HCT-116 [1] = experiment: Induction of autophagy in ATG5 knockout human HCT-116 cells assessed as increase in LC3-II expression upto 4 uM measured after 24 hrs by Western blot analysis; assay type: functional, cell-based
HCT-116 [2] = experiment: Downregulation of oxidative phosphorylation gene in human HCT-116 cells at 2 uM incubated for 24 hrs by RNA sequencing analysis; assay type: functional, cell-based
HCT-116 [3] = experiment: Induction of autophagy in human HCT-116 cells assessed as increase in p62 expression at 3 uM measured after 48 to 60 hrs by Western blot analysis; assay type: functional, cell-based; details: time 48-60 hrs
HCT-116 [4] = experiment: Upregulation of IFN-alpha response pathway in human HCT-116 cells at 2 uM incubated for 24 hrs by RNA sequencing analysis; assay type: functional, cell-based
HCT-116 [5] = experiment: Induction of apoptosis in human HCT-116 cells assessed as viable cells at 1 uM incubated for 24 hrs in presence of Z-VAD-FMK by annexin V FITC/propidium iodide staining based flow cytometry (reference value: 86.2 %); assay type: functional; details: read-out: Activity
HCT-116 [6] = experiment: Inhibition of colony formation in ATG5 knockout human HCT-116 cells upto 4 uM […] by crystal violet staining based analysis; assay type: functional, cell-based
HCT-116 [7] = experiment: Induction of autophagy in ATG7 knockout human HCT-116 cells assessed as increase in LC3-II expression upto 4 uM measured after 24 hrs by Western blot analysis; assay type: functional, cell-based
HCT-116 [8] = experiment: Induction of apoptosis in human HCT-116 cells assessed as viable cells at 2 uM incubated for 24 hrs in presence of Z-VAD-FMK by annexin V FITC/propidium iodide staining based flow cytometry (reference value: 86.2 %); assay type: functional; details: read-out: Activity
BGC-823 = experiment: Antiproliferative activity against human BGC-823 cells assessed as inhibition of cell growth measured after 48 hrs by MTT assay; assay type: functional, cell-based; details: BGC-823, 48 h
HCT-116 [9] = experiment: Downregulation of DNA repair gene in human HCT-116 cells at 2 uM incubated for 24 hrs by RNA sequencing analysis; assay type: functional, cell-based
SK-OV-3 = experiment: Antiproliferative activity against human SK-OV-3 cells assessed as inhibition of cell growth measured after 48 hrs by MTT assay; assay type: functional, cell-based; details: SK-OV-3, 48 h
HCT-116 [10] = experiment: Inhibition of colony formation in ATG7 knockout human HCT-116 cells upto 4 uM […] by crystal violet staining based analysis; assay type: functional, cell-based
HCT-116 [11] = experiment: Upregulation of inflammatory response gene in human HCT-116 cells at 2 uM incubated for 24 hrs by RNA sequencing analysis; assay type: functional, cell-based
A-375 = experiment: Antiproliferative activity against human A-375 cells assessed as inhibition of cell growth measured after 48 hrs by MTT assay; assay type: functional, cell-based; details: A-375, 48 h
HCT-116 [12] = experiment: Upregulation of bile acid metabolism pathway in human HCT-116 cells at 2 uM incubated for 24 hrs by RNA sequencing analysis; assay type: functional, cell-based
HCT-116 [13] = experiment: Antiproliferative activity against p53 knockout human HCT-116 cells assessed as inhibition of cell growth measured after 24 hrs by CCK-8 assay; assay type: functional, cell-based; details: HCT-116, 24 h
HCT-116 [14] = experiment: Antiproliferative activity against ATG7 knockout human HCT-116 cells assessed as inhibition of cell growth measured after 24 hrs by CCK-8 assay; assay type: functional, cell-based; details: HCT-116, 24 h
HCT-116 [15] = experiment: Induction of apoptosis in p53 knockout human HCT-116 cells assessed as increase in cleaved caspase 3 expression upto 5 uM incubated for 24 hrs by Western blot analysis; assay type: functional, cell-based
HCT-116 [16] = experiment: Upregulation of hedgehog signaling pathway in human HCT-116 cells at 2 uM incubated for 24 hrs by RNA sequencing analysis; assay type: functional, cell-based
HCT-116 [17] = experiment: Induction of apoptosis in human HCT-116 cells assessed as necrotic cells at 1 uM incubated for 24 hrs by annexin V FITC/propidium iodide staining based flow cytometry (reference value: 7.7%); assay type: functional
HCT-116 [18] = experiment: Induction of apoptosis in human HCT-116 cells assessed as increase in cleaved caspase 3 expression upto 5 uM incubated for 24 hrs by Western blot analysis; assay type: functional, cell-based
HCT-116 [19] = experiment: Induction of apoptosis in human HCT-116 cells assessed as late apoptotic cells at 2 uM incubated for 24 hrs in presence of Z-VAD-FMK by annexin V FITC/propidium iodide staining based flow cytometry (reference value: 4.6 %); assay type: functional
HCT-116 [20] = experiment: Induction of apoptosis in human HCT-116 cells assessed as increase in caspase 3 expression upto 5 uM incubated for 24 hrs by Western blot analysis; assay type: functional, cell-based
HCT-116 [21] = experiment: Upregulation of Kras signaling pathway in human HCT-116 cells at 2 uM incubated for 24 hrs by RNA sequencing analysis; assay type: functional, cell-based
HCT-116 [22] = experiment: Induction of apoptosis in human HCT-116 cells assessed as necrotic cells at 2 uM incubated for 24 hrs in presence of Z-VAD-FMK by annexin V FITC/propidium iodide staining based flow cytometry (reference value: 2.9 %); assay type: functional
HCT-116 [23] = experiment: Downregulation of Myc-v2 in human HCT-116 cells at 2 uM incubated for 24 hrs by RNA sequencing analysis; assay type: functional, cell-based
HCT-116 [24] = experiment: Antiproliferative activity against human HCT-116 cells assessed as inhibition of cell growth measured after 24 hrs by CCK-8 assay; assay type: functional, cell-based; details: HCT-116, 24 h
HCT-116 [25] = experiment: Induction of apoptosis in human HCT-116 cells assessed as early apoptotic cells at 2 uM incubated for 24 hrs by annexin V FITC/propidium iodide staining based flow cytometry (reference value: 4.7%); assay type: functional
HCT-116 [26] = experiment: Induction of apoptosis in human HCT-116 cells assessed as increase in LC3-II expression upto 4 uM incubated for 24 hrs by Western blot analysis; assay type: functional, cell-based
HCT-116 [27] = experiment: Induction of autophagy in human HCT-116 cells expressing assessed as LC3B-EGFP-mCherry at 2 to 4 uM incubated for 24 hrs by DAPI staining based confocal microscopic analysis; assay type: functional, cell-based; details: dose 2-4 µM
HCT-116 [28] = experiment: Downregulation of Myc-v1 in human HCT-116 cells at 2 uM incubated for 24 hrs by RNA sequencing analysis; assay type: functional, cell-based
HCT-116 [29] = experiment: Induction of apoptosis in human HCT-116 cells assessed as viable cells at 2 uM incubated for 24 hrs by annexin V FITC/propidium iodide staining based flow cytometry (reference value: 83 %); assay type: functional; details: read-out: Activity
MCF7 = experiment: Antiproliferative activity against human MCF7 cells assessed as inhibition of cell growth measured after 48 hrs by MTT assay; assay type: functional, cell-based; details: MCF7, 48 h
HCT-116 [30] = experiment: Induction of autophagy in human HCT-116 cells assessed as increase in LC3-II expression upto 5 uM incubated for 24 hrs by Western blot analysis; assay type: functional, cell-based
HCT-116 [31] = experiment: Induction of apoptosis in human HCT-116 cells assessed as early apoptotic cells at 1 uM incubated for 24 hrs in presence of Z-VAD-FMK by annexin V FITC/propidium iodide staining based flow cytometry (reference value: 6.3 %); assay type: functional
CWR22R = experiment: Antiproliferative activity against human 22Rv1 cells assessed as inhibition of cell growth measured after 48 hrs by MTT assay; assay type: functional, cell-based; details: 22Rv1, 48 h
HCT-116 [32] = experiment: Induction of apoptosis in human HCT-116 cells assessed as late apoptotic cells at 1 uM incubated for 24 hrs in presence of Z-VAD-FMK by annexin V FITC/propidium iodide staining based flow cytometry (reference value: 4.6 %); assay type: functional
786-0 = experiment: Antiproliferative activity against human 786-0 cells assessed as inhibition of cell growth measured after 48 hrs by MTT assay; assay type: functional, cell-based; details: 786-0, 48 h

With `CN1CCN(Cc2cc3c4ccccc4n(CCCc4ccccc4)c3c(CN3CCN(C)CC3)n2)CC1` the Activity (HCT-116 [1]) was “inactive”, the Activity (HCT-116 [2]) was “Active” and the Activity (HCT-116 [3]) was “inactive”. The Activity (HCT-116 [4]) was “Active”, the viability at 1 µM (HCT-116 [5]) was 84.8% and the inhibition (HCT-116 [6]) was “inactive”. For the same compound, the Activity (HCT-116 [7]) was “inactive”, the viability at 2 µM (HCT-116 [8]) was 83.7% and the IC50 (BGC-823) was 24.8 µM. The Activity (HCT-116 [9]) was “Active”, the IC50 (SK-OV-3) was 10.6 µM and the inhibition (HCT-116 [10]) was “inactive”. The Activity (HCT-116 [11]) was “Active”, the IC50 (A-375) was 11.5 µM and the Activity (HCT-116 [12]) was “Active”. For the same compound, the IC50 (HCT-116 [13]) was 4.71 µM, the IC50 (HCT-116 [14]) was 7.89 µM and the Activity (HCT-116 [15]) was “inactive”. The Activity (HCT-116 [16]) was “Active”, the Activity (HCT-116 [17]) was 6% and the Activity (HCT-116 [18]) was “inactive”. The Activity (HCT-116 [19]) was 4.6%, the Activity (HCT-116 [20]) was “inactive” and the Activity (HCT-116 [21]) was “Active”. The Activity (HCT-116 [22]) was 6.3%, the Activity (HCT-116 [23]) was “Active” and the IC50 (HCT-116 [24]) was 4.97 µM. The Activity (HCT-116 [25]) was 6.2%, the Activity (HCT-116 [26]) was “Active” and the Activity (HCT-116 [27]) was “Active”. For the same compound, the Activity (HCT-116 [28]) was “Active”, the viability at 2 µM (HCT-116 [29]) was 82.1% and the IC50 (MCF7) was 13.5 µM. The Activity (HCT-116 [30]) was “Active”, the Activity (HCT-116 [31]) was 6.7% and the IC50 (CWR22R) was 3.86 µM. The Activity (HCT-116 [32]) was 4.9% and the IC50 (786-0) was 2.71 µM.
